Measurements taken from BindingDB's records for doi:10.1016/j.ejmech.2022.114789 (Sichuan University, 2022).

Target: T1, Catenin beta-1 (Homo sapiens, UniProt P35222)
T1 sequence (P35222 whole entry): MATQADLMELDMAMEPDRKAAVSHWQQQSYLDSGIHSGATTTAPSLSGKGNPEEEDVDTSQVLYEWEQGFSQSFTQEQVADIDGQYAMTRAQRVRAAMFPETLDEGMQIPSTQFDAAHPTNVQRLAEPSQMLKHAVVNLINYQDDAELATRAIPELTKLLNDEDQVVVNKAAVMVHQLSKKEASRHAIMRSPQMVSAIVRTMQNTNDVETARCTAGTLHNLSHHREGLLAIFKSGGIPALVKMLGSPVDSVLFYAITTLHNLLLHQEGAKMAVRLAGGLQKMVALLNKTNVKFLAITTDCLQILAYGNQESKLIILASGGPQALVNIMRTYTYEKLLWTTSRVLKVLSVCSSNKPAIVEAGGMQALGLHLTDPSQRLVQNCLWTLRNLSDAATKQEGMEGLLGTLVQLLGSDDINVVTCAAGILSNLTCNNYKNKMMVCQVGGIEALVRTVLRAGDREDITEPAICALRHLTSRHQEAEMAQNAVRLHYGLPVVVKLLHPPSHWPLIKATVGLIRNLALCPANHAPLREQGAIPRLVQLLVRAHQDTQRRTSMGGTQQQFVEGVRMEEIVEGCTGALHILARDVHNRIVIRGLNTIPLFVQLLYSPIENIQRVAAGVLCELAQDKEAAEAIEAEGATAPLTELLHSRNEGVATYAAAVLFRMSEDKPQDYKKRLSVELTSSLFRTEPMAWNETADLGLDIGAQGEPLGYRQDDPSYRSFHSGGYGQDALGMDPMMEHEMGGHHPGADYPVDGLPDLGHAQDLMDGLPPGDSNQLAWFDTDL
Test: Inhibition of His6-tagged human beta-Catenin (138 to 686 residues)/biotinylated human BCL9 (350 to 375 residues) protein-protein interaction assessed as inhibition constant by AlphaScreen competitive assay

`O=C(Nc1ccc(O[C@H]2CCNC2)c(-c2ccc(F)cc2)c1)c1ccc(O[C@H]2CCNC2)c(-c2ccc(F)c(F)c2)c1` gave a Ki of 2100 nM.
